Data taken from patent US20230285372A1, “Pharmaceutical use of (E)-3-arylheterocyclylprop-2-enoic acid derivatives” (MEDCURIUS INC., priority 2020, published 2023).
Structures can show the parent of a compound that is named as a salt. Where two headings read alike, the source gives them in different places.

Key:
SH-SY5Y cells = assay: Protective effect on SH-SY5Y cell damage caused by oxygen-glucose deprivation/reperfusion; format: cell-based; conditions: OGD 4 hours then 24 hours, CCK-8, model 56.83
Experimental: SH-SY5Y cells in logarithmic growth phase were selected, the culture medium was discarded, the cells were digested with 0.25% Trypsin containing EDTA, and cell suspension was made. Cell density was adjusted to 30,000/ml with DMEM/F12 medium (containing 10% FBS and 1% double antibody) and it was inoculated to 96-well plate, 100 μL/well, the number of cells per well was 3,000, and the cells were cultured in a cell incubator at 37° C. in an atmosphere containing 5% CO2 for 24 hours. After 24 hours, the cells were washed twice with the Earle's solution. For the control group, 100 μL oxygenated Earle's solution was added in each well, and for the remaining groups, 100 μL oxygen-free Earle's solution after nitrogen bubbling was added, and the oxygen content in an anoxic chamber was kept below 0.5%, and models were made in the cell incubator for 4 hours. […] After 24 hours, CCK-8 cell viability test kit was used to detect the cell viability.

HT-22 cells = assay: Protective effect on HT-22 cell damage caused by L-glutamate monosodium salt; format: cell-based, mouse; conditions: 15 mM L-glutamate; for viability at 0.078 µM / viability at 0.156 µM / viability at 0.313 µM / viability at 1.25 µM / viability at 2.5 µM / viability at 5 µM / viability at 10 µM / viability at 0.625 µM: Mus musculus, 24 hours; for viability at 1.25 µM: Conc 1.25 μm; for protection of HT22 cells against L-glutamate monosodium salt damage, in words: comparison with positive control drug DMF
Experimental: (§1) Well-proliferated HT-22 cells, derived from mouse hippocampal neuronal cells in logarithmic growth phase, were selected, and they were counted after being subjected to trypsin digestion and dispersion. The cell density was adjusted with DMEM/F12 medium (containing 10% FBS and 1% double antibody). The cells were then inoculated in a 96-well plate at a density of 2,000 cells per well, and cultured in a cell incubator at 37° C. in atmosphere containing 5% CO2 for 24 hours. For the control group and the L-glutamate monosodium salt group (model group), serum-free DMEM/F12 medium was added, and the other wells were added with tested compounds of different concentrations; except that the serum-free DMEM/F12 medium was added to the control group. L-glutamate monosodium salt solution at the final concentration of 15 mM was added to the remaining wells. After 24 hours, the cell viability was detected with a luminescent cell viability assay kit.
as §1, with “group,” for “group.”
as §1, with “2.000” for “2,000”, “group,” for “group.”

[1] = HT-22, 24 h, Table 1, Conc 0.078 μm, L-Glu alone 27.73 (I-5 32.92), read-out: cell viability
[2] = HT-22, 24 h, Table 1, Conc 0.156 μm, L-Glu alone 27.73 (I-5 32.92), read-out: cell viability
[3] = HT-22, 24 h, Table 1, Conc 0.313 μm, L-Glu alone 27.73 (I-5 32.92), read-out: cell viability
[4] = HT-22, 24 h, Table 1, L-Glu alone 27.73 (I-5 32.92), read-out: cell viability
[5] = HT-22, 24 h, Table 1, Conc 2.5 μm, L-Glu alone 27.73 (I-5 32.92), read-out: cell viability
[6] = HT-22, 24 h, Table 1, Conc 5 μm, L-Glu alone 27.73 (I-5 32.92), read-out: cell viability
[7] = HT-22, 24 h, Table 1, Conc 10 μm, L-Glu alone 27.73 (I-5 32.92), read-out: cell viability
[8] = HT-22, Table 2, Conc 0.156 μM, L-Glu alone 27.83, read-out: Visibility %
[9] = HT-22, Table 2, Conc 0.313 μM, L-Glu alone 27.83, read-out: Visibility %
[10] = HT-22, Table 2, Conc 10 μM, L-Glu alone 27.83, read-out: Visibility %
[11] = HT-22, 24 h, Table 1, Conc 0.625 μm, L-Glu alone 27.73 (I-5 32.92), read-out: cell viability
[12] = HT-22, Table 2, Conc 2.5 μM, L-Glu alone 27.83, read-out: Visibility %

SMILES	viability at 0.078 µM (HT-22 cells; [1])	viability at 0.156 µM (HT-22 cells; [2])	viability at 1.25 µM (HT-22 cells; [4])	viability at 2.5 µM (HT-22 cells; [5])	viability at 5 µM (HT-22 cells; [6])	viability at 10 µM (HT-22 cells; [7])	viability at 0.625 µM (HT-22 cells; [11])	also measured
N#C/C=C/c1ccccn1 [I-5 HCl]								Visibility % (SH-SY5Y cells; Conc 0.078 μM): 67.72%; Visibility % (SH-SY5Y cells; Conc 0.156 μM): 67.82%; Visibility % (SH-SY5Y cells; Conc 0.313 μM): 69.35%; Visibility % (SH-SY5Y cells; Conc 0.625 μM): 74.72%
N#C/C=C/c1cccnc1 [Compound I-6]	40.1%	43.3%	40.9%	43%	40.1%	42.6%		viability at 0.313 µM (HT-22 cells; [3]): 42.9%
CN(C)C(=O)/C=C/c1ncccn1 [Compound I-19]								viability at 0.078 µM (HT-22 cells; HT-22, Table 2, Conc 0.078 μM, L-Glu alone 27.83, read-out: Visibility %): 47.1%; viability at 0.156 µM (HT-22 cells; [8]): 39.2%; viability at 0.313 µM (HT-22 cells; [9]): 37.5%
COC(=O)NC(=O)/C=C/c1ccncc1 [Compound I-17]								viability at 0.156 µM (HT-22 cells; [8]): 48.3%; viability at 0.625 µM (HT-22 cells; HT-22, Table 2, Conc 0.625 μM, L-Glu alone 27.83, read-out: Visibility %): 51.2%; viability at 5 µM (HT-22 cells; HT-22, Table 2, Conc 5 μM, L-Glu alone 27.83, read-out: Visibility %): 33.6%; viability at 10 µM (HT-22 cells; [10]): 31.2%
COC(=O)/C=C/c1cccnc1 [Compound I-3]	46.8%	50.6%	45.2%	47.5%	37.3%	31.2%	46.8%	
CN(C)C(=O)/C=C/c1ccccn1 [Compound I-11]	42.4%	42.2%	43.6%	46.5%	35.4%	40.3%	44.2%	viability at 0.313 µM (HT-22 cells; [3]): 46.1%
COC(=O)/C=C/c1ccccn1 [Compound I-1]	38.7%	45.7%	43.5%		38.4%	33.4%	47.9%	
CC1=NN(c2ccccc2)C(=O)C1 [Edaravone, reference compound]								Visibility % (SH-SY5Y cells; Conc 0.078 μM): 59.41%; Visibility % (SH-SY5Y cells; Conc 0.156 μM): 62.42%; Visibility % (SH-SY5Y cells; Conc 10 μM): 67.39%
COC(=O)/C=C/c1ccncc1 [Compound I-4]	45.1%	44.1%	41.3%	40.5%	40.2%	37.6%	42.3%	viability at 0.313 µM (HT-22 cells; [3]): 42.7%
CON(C)C(=O)/C=C/c1ccccn1 [Compound I-8]		77.8%	54.6%	54.8%	50.9%	53%	71.1%	protection of HT22 cells against L-glutamate monosodium salt damage, in words (HT-22 cells): better effects than the positive control drug DMF; viability at 0.313 µM (HT-22 cells; [3]): 70.6%
CN(C)C(=O)/C=C/c1nccn1C [Compound I-24]								viability at 0.156 µM (HT-22 cells; [8]): 39.6%; viability at 0.313 µM (HT-22 cells; [9]): 38%; viability at 2.5 µM (HT-22 cells; [12]): 35.7%
Cc1coc(/C=C/C#N)n1 [Compound I-26]								protection of HT22 cells against L-glutamate monosodium salt damage, in words (HT-22 cells): perform far better than the positive control drug DMF
CN(C)C(=O)/C=C/c1ccncc1 [Compound I-13]	52.4%	58.8%	61.6%	59.7%	51.5%	51.6%	64.9%	protection of HT22 cells against L-glutamate monosodium salt damage, in words (HT-22 cells): better effects than the positive control drug DMF
CON(C)C(=O)/C=C/c1ccncn1 [Compound I-21]								viability at 2.5 µM (HT-22 cells; [12]): 60.3%; viability at 10 µM (HT-22 cells; [10]): 58.4%
